The test system of one data set is human p21 mRNA. The data set can be described thus: In vitro cleavage assay of human p21 mRNA. It is filed as biochemical. As to conditions: in vitro cleavage of p21 mRNA (SEQ ID NO: 1); RNA substrate 500 nM, 37° C. 60 min, agarose gel. Summed up:
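RNA substrates were T7 in vitro transcripts from PCR-amplified cDNA (source RNA: senescent IMR-90 cells), gel-purified. Substrate at 500 nM final was incubated with DNAzyme (10 μM stock) in reaction buffer (10× stock: 50 mM Tris-HCl pH 7.4, 100 mM NaCl, 10 mM MgCl2) for 60 min at 37 °C. Cleavage products were resolved on 1.5% agarose TBE gels and quantified by densitometry.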

In data set [1] the test system is senescent human IMR-90 fibroblast cells. The class given is cell-based. As to conditions: increasing concentrations (FIGS. 6A-C, 12A-C). The procedure, abridged:
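Senescence was induced by etoposide at […] for 48 h, with the phenotype present 7 days later, or by H-RasG12 or long-term passaging. Cells grown at 5% oxygen were transfected with DNAzymes by Lipofectamine 2000, and survival was scored 3-6 days later by PrestoBlue relative to Lipofectamine-only control.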

Another data set concerns p21 mRNA. Briefly: Quantitative RT-PCR of p21 mRNA in senescent cells. The class given is cell-based, human. As to conditions: over 24 hours following treatment, 2000 nM (FIG. 5D). On the procedure:
Total RNA was extracted from IMR-90 cells using NucleoSpin® RNA (Macherey-Nagel™), according to the manufacturer protocol. Complementary DNA was prepared using the M-MLV Reverse Transcriptase (Promega), according to the manufacturer protocol. Quantitative real-time PCR was performed using the SYBR Green PCR master-mix (Applied Biosystems) on a CFX96 Real-Time PCR System (Bio Rad). See primer sequences in Table 1, above.

In data set [2] the test system is cancer cell lines (HepG2, A549, Panc1, HCT-116). Briefly: Chemotherapy and DNAzyme combination, several cancer cell lines. It is filed as cell-based. As to conditions: therapy induced senescence, viability 72 hours following treatment (FIG. 12F). The text has this: (§1) PANC-1 cells were maintained in DMEM medium supplemented with 10% fetal bovine serum, 1% penicillin-streptomycin and 1% sodium pyruvate. HCT116 cells were maintained in McCoy's 5A medium supplemented with 10% fetal bovine serum and 1% penicillin-streptomycin. A549 cells were maintained in F-12K Medium supplemented with 10% fetal bovine serum and 1% penicillin-streptomycin. HepG2 cell were maintained Eagle's Minimum Essential Medium, supplemented in 10% fetal bovine serum, 1% penicillin-streptomycin and 1% sodium pyruvate. All cancer cell lines were incubated in 5% C02 at 37° C.
(§2) Cancer cell lines were seeded in 96 well plates 24 hours before treatment. Chemotherapies were applied at indicated concentrations either alone or as combination with DNAzyme-lipofectamine complex. 72 hours following treatment, cell viability was measured using Prestoblue® reagent. Chemotherapies were diluted in cell medium to the indicated concentrations. 24 hours following seeding, culture medium was replaced with chemotherapy containing medium, immediately followed by transfection of DNAzyme as described above. 72 hours following treatment, cell viability was measured using Prestoblue® reagent.
(§3) The following chemotherapies were used: Etoposide (Sigma), Palbociclib (Sigma), Doxorubicin (Sigma), Cisplatin (Sigma), ABT-263 (Selleckchem). All compounds were dissolved and stored according to manufacturer instructions.

The subject of another data set is HepG2 cells. The data set can be described thus: Chemotherapy and DNAzyme combination, HepG2. The class given is cell-based.
Description: as §1, §2, §3

The subject of another data set is p21 protein. The data set can be described thus: p21 protein in HepG2 cell lysate (IF and ELISA). It is filed as cell-based, human. As to conditions: Etoposide alone or with scramble or DNAzyme 1670 (FIGS. 15B-C). The procedure:
p21 protein quantification was analyzed using (Human p21 ELISA Kit—ab214658, Abcam), according to the manufacturer's instructions. The cell pellets were incubated with Cell Extraction Buffer PTR on ice for 20 minutes. Following Centrifuge at 18,000×g for 20 minutes, the sample protein concentrations were quantified using a BCA protein assay. The samples and Antibody Cocktail were added to appropriate wells and incubated for one hour at room temperature (RT), followed by three washes with Wash Buffer and incubation with TMB Development Solution for 15 minutes at RT. Then, the Stop Solution was added, the samples were incubated for 1 minute, and the samples were read by absorbance at 450 nm using plate reader.
(In general: ELISA stands for enzyme-linked immunosorbent assay.)

“Also recorded” adds a separate entry of the source.

Turning to “DNAzyme 1670: SEQ ID NO: 54: GGGAAAGGAggctagctacaacgaAAGGGGGAG (DNA GGGAAAGGAGGCTAGCTACAACGAAAGGGGGAG; DNA, backbone and methylation of C not given here)”, the Validated cleavage entry with human p21 mRNA is “time and concentration dependent; also recorded: validated for mediating cleavage of p21 mRNA”. In data set [1], the “selectivity of killing, senescent versus growing IMR-90 cells” value is on record as “wide range of selective doses”. For the same substance, the “p21 mRNA knockdown” value with p21 mRNA is 57%. In data set [2], the “efficacy of sub-clinical Etoposide in combination with DNAzyme” value was “comparable to that of clinical Etoposide dose”. Further, in the data set on HepG2 cells (HepG2 (FIG. 12G)), the “sub-clinical doses of various chemotherapies in combination with DNAzyme, synergy” value was “synergistic activity”. Besides, in the data set on HepG2 cells (liver cancer cell line HepG2 (FIG. 12F)), the “combination treatment of Etoposide and DNAzyme, synergy” value was “good synergistic results”. Moreover, the “p21 protein in cell lysate” value in the data set with p21 protein is recorded as “can counteract the upregulation in p21 levels”.
